Source: the supplement of paper PMC10627819
≈ marks a conversion by molar mass, not a printed value.

Columns and labels:
S. aureus Newman [1] = tested on: S. aureus Newman
S. pneumoniae D39V [2] = tested on: S. pneumoniae D39V
B. subtilis 168 [3] = tested on: B. subtilis 168
S. aureus DSM 20231 [4] = tested on: S. aureus DSM 20231
S. aureus Newman [5] = assay: fitness (endpoint OD595 vs no drug) (fraction); higher = more growth
Outline: (§1)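 With the first reading as background, OD595 was measured every 30 min for 14 h in 384-well plates kept at 37 °C and inoculated at OD595 0.01. TSB, LB Lennox or CY was the medium. Fitness is the optical density at the transition into stationary phase divided by the robust mean of no-drug control wells, with a cap of 1.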

S. pneumoniae D39V [6] = assay: as above
Outline: as §1

B. subtilis 168 [7] = assay: as above
Outline: as §1

S. aureus DSM 20231 [8] = assay: as above
Outline: as §1

CC[C@H]1OC(=O)[C@H](C)[C@@H](O[C@H]2C[C@@](C)(OC)[C@@H](O)[C@H](C)O2)[C@H](C)[C@@H](O[C@@H]2O[C@H](C)C[C@H](N(C)C)[C@H]2O)[C@](C)(O)C[C@@H](C)CN(C)[C@H](C)[C@@H](O)[C@]1(C)O [Azithromycin]
Details	MIC [µg/mL]
B. subtilis 168 [3]	2 (≈ 2.67 µM)
S. aureus DSM 20231 [4]	0.556 (≈ 0.742 µM)
S. aureus Newman [1]	0.5 (≈ 0.668 µM)
S. pneumoniae D39V [2]	2 (≈ 2.67 µM)

fitness
Details	0.125 µg/mL	0.25 µg/mL	0.5 µg/mL	1 µg/mL	2 µg/mL
B. subtilis 168 [7]	–	0.891	0.869	0.699	0.0641
S. aureus DSM 20231 [8]	0.994	0.914	0.508	0.834	–
S. aureus Newman [5]	0.93	0.901	0.706	–	–
S. pneumoniae D39V [6]	–	0.524	0.323	0.096	–

CC1=C(C(=O)O)N2C(=O)[C@@H](NC(=O)[C@H](N)c3ccccc3)[C@H]2SC1 [Cephalexin]
Details	MIC [µg/mL]
S. aureus DSM 20231 [4]	4 (≈ 11.5 µM)
S. aureus Newman [1]	4 (≈ 11.5 µM)
S. pneumoniae D39V [2]	4 (≈ 11.5 µM)

fitness
Details	0.125 µg/mL	0.25 µg/mL	0.5 µg/mL	1 µg/mL	2 µg/mL	4 µg/mL
B. subtilis 168 [7]	0.925	0.917	0.937	0.939	–	–
S. aureus Newman [5]	–	0.987	≥ 1	≥ 1	≥ 1	–
S. pneumoniae D39V [6]	–	–	–	0.649	0.29	0.0479

O=C(O)[C@H]1/C(=C/CO)O[C@@H]2CC(=O)N21 [Clavulanic acid]
Details	MIC [µg/mL]
B. subtilis 168 [3]	8 (≈ 40.2 µM)
S. aureus DSM 20231 [4]	0.5 (≈ 2.51 µM)
S. aureus Newman [1]	0.5 (≈ 2.51 µM)
S. pneumoniae D39V [2]	2 (≈ 10 µM)

fitness
Details	0.5 µg/mL	1 µg/mL	1.5 µg/mL	2 µg/mL	3 µg/mL	6 µg/mL
B. subtilis 168 [7]	–	–	0.899	–	0.887	0.769
S. pneumoniae D39V [6]	0.966	0.939	–	0.867	–	–

CNC(C)C1CCC(N)C(OC2C(N)CC(N)C(OC3OCC(C)(O)C(NC)C3O)C2O)O1 (stereo not given) [Gentamicin]
main component drawn
Details	MIC [µg/mL]
B. subtilis 168 [3]	0.25 (≈ 0.523 µM)
S. aureus DSM 20231 [4]	2 (≈ 4.19 µM)
S. aureus Newman [1]	2 (≈ 4.19 µM)
S. pneumoniae D39V [2]	18 (≈ 37.7 µM)

main component drawn
Details	fitness
B. subtilis 168 [7], 0.0625 µg/mL	0.887
B. subtilis 168 [7], 0.125 µg/mL	0.131
B. subtilis 168 [7], 0.25 µg/mL	0.0542
S. aureus DSM 20231 [8], 0.5 µg/mL	≥ 1
S. aureus DSM 20231 [8], 1 µg/mL	≥ 1
S. aureus DSM 20231 [8], 2 µg/mL	0.984
S. aureus DSM 20231 [8], 4 µg/mL	0.129
S. aureus Newman [5], 0.375 µg/mL	≥ 1
S. aureus Newman [5], 0.5 µg/mL	0.996
S. aureus Newman [5], 0.75 µg/mL	≥ 1
S. aureus Newman [5], 1 µg/mL	0.992
S. aureus Newman [5], 1.5 µg/mL	0.583
S. aureus Newman [5], 2 µg/mL	0.999
S. aureus Newman [5], 4 µg/mL	0.302
S. pneumoniae D39V [6], 2 µg/mL	1
S. pneumoniae D39V [6], 4 µg/mL	0.986
S. pneumoniae D39V [6], 8 µg/mL	0.962

Clc1ccc(COC(Cn2ccnc2)c2ccc(Cl)cc2Cl)c(Cl)c1 (stereo not given) [Miconazole]
Details	MIC [µg/mL]
B. subtilis 168 [3]	5 (≈ 12 µM)
S. aureus DSM 20231 [4]	5 (≈ 12 µM)
S. aureus Newman [1]	3 (≈ 7.21 µM)
S. pneumoniae D39V [2]	10 (≈ 24 µM)

S. pneumoniae D39V [6]
Details	fitness
1.25 µg/mL	0.907
2.5 µg/mL	0.893
5 µg/mL	0.926

Cc1onc(-c2ccccc2)c1C(=O)N[C@@H]1C(=O)N2[C@@H]1SC(C)(C)[C@@H]2C(=O)O [Oxacillin]
Details	MIC [µg/mL]
S. aureus DSM 20231 [4]	0.069 (≈ 0.172 µM)
S. aureus Newman [1]	0.069 (≈ 0.172 µM)
S. pneumoniae D39V [2]	0.031 (≈ 0.0772 µM)

Details	fitness
B. subtilis 168 [7], 0.002 µg/mL	0.925
B. subtilis 168 [7], 0.004 µg/mL	0.936
B. subtilis 168 [7], 0.0078 µg/mL	0.941
B. subtilis 168 [7], 0.008 µg/mL	0.962
B. subtilis 168 [7], 0.0155 µg/mL	0.952
B. subtilis 168 [7], 0.031 µg/mL	0.902
S. aureus DSM 20231 [8], 0.0156 µg/mL	0.972
S. aureus DSM 20231 [8], 0.0312 µg/mL	0.889
S. aureus DSM 20231 [8], 0.0625 µg/mL	0.621
S. aureus Newman [5], 0.0156 µg/mL	0.843
S. aureus Newman [5], 0.0312 µg/mL	0.759
S. aureus Newman [5], 0.0625 µg/mL	0.608
S. pneumoniae D39V [6], 0.005 µg/mL	≥ 1
S. pneumoniae D39V [6], 0.01 µg/mL	0.996
S. pneumoniae D39V [6], 0.02 µg/mL	0.986
S. pneumoniae D39V [6], 0.04 µg/mL	0.515

C[n+]1ccc(-c2cc[n+](C)cc2)cc1 [Paraquat]
Details	MIC [µg/mL]
B. subtilis 168 [3]	50
S. aureus DSM 20231 [4]	50
S. aureus Newman [1]	50
S. pneumoniae D39V [2]	10

fitness
Details	1.25 µg/mL	1.5 µg/mL	2.5 µg/mL	3 µg/mL	5 µg/mL	6 µg/mL
B. subtilis 168 [7]	0.912	–	0.899	–	0.848	–
S. aureus DSM 20231 [8]	≥ 1	–	0.99	–	0.988	–
S. aureus Newman [5]	0.986	–	0.944	–	0.94	–
S. pneumoniae D39V [6]	–	0.992	–	0.993	–	0.965
